Measured values taken from patent US20250255990A1, “FLUORESCENT NANODIAMOND COATED WITH POROUS POLYDOPAMINE, AND USE THEREOF” (KOREA RESEARCH INSTITUTE OF STANDARDS AND SCIENCE, priority 2022, published 2025).

System: HeLa cells
Assay: Annexin V-FITC / PI flow cytometry (FACS)
Assay type: cell-based
Details: 50 μg/mL, 16 hours
Experimental: In addition, analysis was performed using FACS (BD Accuri™, BD Biosciences) to evaluate the biocompatibility of FND@mPDA-PEG. Specifically, HeLa cells were incubated with 50 μg/mL of FND, FND@mPDA-PEG, or doxorubicin for the control experiment at 37° C. for 16 hours and washed with PBS. Cells (1×10^5 cells/sample) were suspended in 100 μL of 1× binding buffer and stained with 5 μL of Annexin V-FITC and 5 μL of PI. The cells were gently vortexed and incubated at room temperature for 15 minutes in the dark. 400 μL of 1× binding buffer was added to each tube and then analyzed by flow cytometry. 10,000 or more events were collected and the data were analyzed using FlowJo™ version 10.7 software.

COc1cccc2c1C(=O)c1c(O)c3c(c(O)c1C2=O)C[C@@](O)(C(=O)CO)C[C@@H]3O[C@H]1C[C@H](N)[C@H](O)[C@H](C)O1 [doxorubicin]
apoptosis / cell survival: induced apoptosis of HeLa cells
